From patent publication US20130023002A1, “USE OF A SUBSTRATE IN A METHOD FOR MEASURING THE ACTIVITY OF AVAILABLE PROTEOLYTIC ENZYMES” (priority 2011, published 2013) come the findings set out here.

The test system of test [1] is unfractionated calcium heparin Calciparine® (anti-Xa activity, factor Xa). Briefly: Evaluation of neutralization of unfractionated heparin by enzyme substrates (anti-Xa activity, para-nitroaniline chromogenic substrate). The conditions noted are these: FIG. 1, qualitative. In kind it is biochemical. An excerpt: (§1) Before referring to the diagrams of the figures, the evaluation method used to quantify the neutralizing effect of the proteolytic enzyme substrates with respect to the glycosaminoglycans in a blood sample, and in particular a plasma, will be described. This evaluation method makes it possible to use both unfractionated heparins and low-molecular-weight heparins. In addition, the method endeavors to test the activity of factor Xa, located at the crossroads of two enzymatic cascades resulting in the formation of thrombin. Moreover, antithrombin, which is a natural inhibitor of thrombin generation, controls the reaction. As soon as it appears, factor Xa couples to its natural substrate, prothrombin, so as to form thrombin. The heparin contained in the sample forms, itself, a complex with antithrombin, which complex promotes the inhibition of factor Xa.
Thus, a chromogenic substrate based on para-nitroaniline, which factor Xa hydrolyzes, is used and the release of the para-nitroaniline, which can be measured optically, is then inversely proportional to the concentration of heparin present in the medium. […]
In this first example, the heparin used is an unfractionated calcium heparin sold under the brand name: “Calciparine®”. According to the evaluation method, the anti-Xa activity is recorded and transferred onto the y-axis, as a function of the heparin concentration of the medium. […]

In test [2] the test system is low-molecular-weight heparin, Fragmine® (anti-Xa activity, factor Xa). Briefly: Evaluation of neutralization of low-molecular-weight heparin by enzyme substrates (anti-Xa activity). In kind it is biochemical.
Text: as §1
Thus, a chromogenic substrate based on para-nitroaniline, which factor Xa hydrolyzes, is used and the release of the para-nitroaniline, which can be measured optically, is then inversely proportional to the concentration of heparin present in the medium. A measurement of the anti-Xa activity is thus deduced therefrom.
More specifically, the percentage neutralization by the substrate is determined as being the ratio of the difference in the variation in anti-Xa activity in the medium containing the physiological saline and in the medium containing the substrate, between two heparin concentrations, and only the variation in activity in the medium containing the physiological saline, between the same two heparin concentrations, this ratio being multiplied by 100 in order to obtain the result as percentage neutralization.
The percentage neutralization can also be written more compactly: 100×(1−ΔA1/ΔA2), wherein ΔA1 corresponds to the variation in activity in the presence of substrate and ΔA2 to the variation in the presence of physiological saline. Thus, the parallel measurement of the variation in the presence of physiological saline makes it possible to establish the reference in each series of measurements.
Still in this first part of the description, the abovementioned evaluation method was implemented with a low-molecular-weight heparin, Fragmine®.
The results of the percentage neutralization of this heparin for the three substrate variants described above, V(1), V(2) and V(3), have been reported in the table below.

Take Z-GGR-AMC: the “effect of substrate with respect to heparin (curve compared with physiological saline)” value in test [1] was “no notable effect with respect to heparin”.

For the substance EtM-VR-Rhod110-Ac [V(1)], the percentage neutralization came to 10% in test [2] (Fragmine® 0.42 IU/ml), 12% in test [2] (Fragmine® 0.83 IU/ml), 13% in test [2] (Fragmine® 1.25 IU/ml) and 15% in test [2] (Fragmine® 1.67 IU/ml).
